According to patent US20250009737A1, “COMPOUNDS AND METHODS FOR THE TARGETED DEGRADATION OF ANDROGEN RECEPTOR” (Arvinas Operations, Inc., priority 2023, published 2025):
Where two headings read alike, the source gives them in different places.

What was measured:
Assay type in all cases: in vitro ADME
OATP1B3 = target: T1, OATP1B3 (Homo sapiens, UniProt Q9NPD5); test: OATP1B3 uptake transporter substrate assay; design: expressed in transfected cells; details: OATP1B3-expressing vs control cell
T1 sequence (Q9NPD5 1-702): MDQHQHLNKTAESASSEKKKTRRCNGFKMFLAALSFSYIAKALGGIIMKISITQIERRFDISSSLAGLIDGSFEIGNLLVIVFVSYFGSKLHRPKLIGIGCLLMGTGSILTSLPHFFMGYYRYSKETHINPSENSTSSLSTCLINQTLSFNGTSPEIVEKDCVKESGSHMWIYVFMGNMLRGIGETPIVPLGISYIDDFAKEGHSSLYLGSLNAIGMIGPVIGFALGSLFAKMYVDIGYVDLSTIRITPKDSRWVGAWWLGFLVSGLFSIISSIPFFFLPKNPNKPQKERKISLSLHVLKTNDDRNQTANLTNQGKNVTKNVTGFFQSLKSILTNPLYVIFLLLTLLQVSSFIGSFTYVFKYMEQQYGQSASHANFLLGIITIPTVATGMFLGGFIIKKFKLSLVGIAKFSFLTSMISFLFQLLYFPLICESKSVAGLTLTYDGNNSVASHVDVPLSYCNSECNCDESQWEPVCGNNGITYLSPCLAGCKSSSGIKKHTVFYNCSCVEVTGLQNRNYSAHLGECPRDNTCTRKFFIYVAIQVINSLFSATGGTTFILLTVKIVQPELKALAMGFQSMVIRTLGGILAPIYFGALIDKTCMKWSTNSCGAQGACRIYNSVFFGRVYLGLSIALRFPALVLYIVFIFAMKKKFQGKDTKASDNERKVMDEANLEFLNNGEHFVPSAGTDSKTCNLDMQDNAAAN
Procedure: (§1) The potential of Compound A to act as an efflux transporter Pgp and BCRP as well as uptake transporter OATP1B1 and 1B3 were assessed in Caco-2 and single transporter over-expressed HEK29 cells, respectively.
(§2) The potential of Compound A to act as a substrate for Pgp and BCRP was examined in Caco-2 cells at the concentrations of 0.075, 0.75, 3.75 and 7.5 μM containing 1% of BSA. After 120 min incubation, the bidirectional permeability of Compound A was determined by LC-MS/MS. The involvement of Compound A as a substrate of OATP1B1 and OATP1B3 was assessed in the uptake transporter substrate assays at 4 concentrations (0.1, 0.5, 1 and 5 μM). Compound A in cell lysates was determined by LC-MS/MS.

Pgp = Pgp (Homo sapiens, UniProt P08183); test: Pgp inhibition in inside-out membrane vesicles from HEK293; design: expressed in transfected cells; host or cells: HEK293 (inside-out membrane vesicles)
Procedure: (§3) In addition, the inhibition potential against efflux transporters (P-glycoprotein (Pgp) and breast cancer resistance protein (BCRP)) and uptake transporters (MATE1, MATE2-K, OATP1B1, OATP1B3, OAT1, OAT3, and OCT2) was assessed using single transporter over-expressed cell monolayers (MDCK II or HEK293) or inside-out vesicles.
(§4) The potential of Compound A to inhibit Pgp or BCRP was tested for bidirectional transport of the probe substrates in Pgp or BCRP-expressed MDCKII and control monolayers at Compound A concentrations of 0.07-5 μM. Pgp and BCR inhibition were tested in inside-out membrane vesicles prepared from HEK293 overexpressing human Pgp and BCR at concentrations of 0.01-9 μM Compound A in the presence of 4 mM MgATP or MgAMP.

CYP2C8 = target: T2, CYP2C8 (Homo sapiens, UniProt P10632); test: Direct and time-dependent CYP2C8 inhibition in pooled human liver microsomes; details: pooled HLM, substrate Amodiaquine 2 μM
T2 construct: evaluated in pooled human liver microsomes (HLM); from tissue; host or cells: pooled human liver microsomes
Procedure: The induction potential of Compound A on CYP enzymes was assessed in cryopreserved human hepatocytes from three donors. Following treatment for with Compound A at concentrations of 0.03-30 μM for 48 hours, mRNA levels for CYP1A2, 2B6, 2C8, 2C9, 2C19, and 3A4 were determined by semiquantitative real-time polymerase chain reaction (PCR). Test article concentrations during 24-hour incubation were determined. The potential of Compound A to cause direct and time-dependent inhibition (TDI) of the activities of CYP1A2, 2B6, 2C8, 2C9, 2C19, 2D6, and 3A4 was evaluated in pooled human liver microsomes (HLM) at 0.2-15 μM. Probe substrate concentrations around Km were used for direction inhibition and initial TDI assays. For TDI assay, Compound A was pre-incubated with pooled HLM with and without NADPH for 30 minutes prior to incubation with a single concentration of probe substrate.

CYP3A5 = CYP3A5 (Homo sapiens, UniProt P20815); test: Incubation with recombinant human CYP3A5
Procedure: (§5) Metabolite profiling was conducted in incubations of Compound A (2 and 10 μM) with HLM (up to 60 min), human hepatocyte suspension (up to 240 min) and human plasma (up to 360 min). In addition, Compound A (2 μM) was incubated with recombinant human CYP enzymes CYP1A2, CYP2A6, CYP2B6, CYP2C8, CYP2C9, CYP2C19, CYP2D6, CYP2E1, CYP3A4 and CYP3A5.
(§6) The DDI potential of Compound A as a victim via CYP mediated pathways was examined in HLM, human hepatocyte suspensions, and human recombinant CYP enzymes.

[1] = Metabolite profiling / stability in human liver microsomes
Procedure: as §5, §6

[2] = Metabolite profiling / stability in human hepatocyte suspension
Procedure: as §5, §6

OAT3 = target: T3, OAT3 (Homo sapiens, UniProt Q8TCC7); test: OAT3 uptake transporter inhibition in MDCKII or HEK293 cells; details: substrate E3S (1 μM)
T3 construct: expressed in transfected cells; host or cells: MDCKII or HEK293
Procedure: as §3, §4

CYP2C8 mRNA = CYP2C8 mRNA induction in cryopreserved human hepatocytes; details: for CYP2C8 mRNA Fold induction: human hepatocytes
Caco-2 cell monolayers = test: Bidirectional permeability in Caco-2 cell monolayers; details: 1% of BSA, 120 min incubation
Procedure: as §1, §2

T2 sequence (P10632 whole entry): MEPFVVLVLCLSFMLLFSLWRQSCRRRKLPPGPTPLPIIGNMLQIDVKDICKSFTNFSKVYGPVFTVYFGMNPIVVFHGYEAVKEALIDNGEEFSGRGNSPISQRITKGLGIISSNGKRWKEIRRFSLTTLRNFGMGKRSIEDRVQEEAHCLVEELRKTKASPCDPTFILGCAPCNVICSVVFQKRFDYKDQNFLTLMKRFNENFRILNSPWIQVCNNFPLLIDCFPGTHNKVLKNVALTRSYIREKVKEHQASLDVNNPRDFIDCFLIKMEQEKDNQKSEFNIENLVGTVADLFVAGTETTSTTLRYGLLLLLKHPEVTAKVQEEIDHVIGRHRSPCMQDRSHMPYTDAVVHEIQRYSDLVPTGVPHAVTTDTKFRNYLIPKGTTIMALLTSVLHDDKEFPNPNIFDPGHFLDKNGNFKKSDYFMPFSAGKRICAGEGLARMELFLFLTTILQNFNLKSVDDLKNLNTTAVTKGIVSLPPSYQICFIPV
Pgp, sequence (P08183 whole entry): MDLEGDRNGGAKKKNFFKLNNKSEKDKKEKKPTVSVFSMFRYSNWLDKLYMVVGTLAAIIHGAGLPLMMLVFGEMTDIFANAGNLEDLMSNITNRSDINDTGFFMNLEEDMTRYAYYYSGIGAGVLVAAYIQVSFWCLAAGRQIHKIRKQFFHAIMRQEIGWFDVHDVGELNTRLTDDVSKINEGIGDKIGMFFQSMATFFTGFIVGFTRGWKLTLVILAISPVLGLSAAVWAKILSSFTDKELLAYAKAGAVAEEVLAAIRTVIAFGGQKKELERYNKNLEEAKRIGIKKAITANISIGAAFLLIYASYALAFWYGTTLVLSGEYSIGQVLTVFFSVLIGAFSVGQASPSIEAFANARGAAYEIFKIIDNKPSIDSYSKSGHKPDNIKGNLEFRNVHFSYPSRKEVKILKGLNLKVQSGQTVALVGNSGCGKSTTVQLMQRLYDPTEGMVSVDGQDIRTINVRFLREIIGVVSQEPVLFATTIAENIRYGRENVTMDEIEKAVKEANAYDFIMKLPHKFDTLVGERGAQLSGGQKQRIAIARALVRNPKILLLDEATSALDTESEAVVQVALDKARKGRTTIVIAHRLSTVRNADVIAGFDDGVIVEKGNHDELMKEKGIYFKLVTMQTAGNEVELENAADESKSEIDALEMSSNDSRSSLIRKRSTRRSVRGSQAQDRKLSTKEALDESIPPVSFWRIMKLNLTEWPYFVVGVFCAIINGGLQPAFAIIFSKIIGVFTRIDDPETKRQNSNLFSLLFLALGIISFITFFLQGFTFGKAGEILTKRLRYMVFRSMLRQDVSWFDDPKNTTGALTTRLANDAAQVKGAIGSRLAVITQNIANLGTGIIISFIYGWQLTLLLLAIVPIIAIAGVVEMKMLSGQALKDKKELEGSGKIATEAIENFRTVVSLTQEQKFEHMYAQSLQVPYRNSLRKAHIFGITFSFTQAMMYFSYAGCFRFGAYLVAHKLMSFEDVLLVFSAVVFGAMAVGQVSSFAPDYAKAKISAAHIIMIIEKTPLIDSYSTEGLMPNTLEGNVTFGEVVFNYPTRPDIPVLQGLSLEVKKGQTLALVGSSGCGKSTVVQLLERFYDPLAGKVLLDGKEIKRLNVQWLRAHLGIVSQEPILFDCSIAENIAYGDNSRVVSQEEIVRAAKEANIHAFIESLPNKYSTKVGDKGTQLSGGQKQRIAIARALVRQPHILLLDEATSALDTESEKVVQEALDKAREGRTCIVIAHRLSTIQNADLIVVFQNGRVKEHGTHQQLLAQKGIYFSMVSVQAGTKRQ
T3 sequence (Q8TCC7 whole entry): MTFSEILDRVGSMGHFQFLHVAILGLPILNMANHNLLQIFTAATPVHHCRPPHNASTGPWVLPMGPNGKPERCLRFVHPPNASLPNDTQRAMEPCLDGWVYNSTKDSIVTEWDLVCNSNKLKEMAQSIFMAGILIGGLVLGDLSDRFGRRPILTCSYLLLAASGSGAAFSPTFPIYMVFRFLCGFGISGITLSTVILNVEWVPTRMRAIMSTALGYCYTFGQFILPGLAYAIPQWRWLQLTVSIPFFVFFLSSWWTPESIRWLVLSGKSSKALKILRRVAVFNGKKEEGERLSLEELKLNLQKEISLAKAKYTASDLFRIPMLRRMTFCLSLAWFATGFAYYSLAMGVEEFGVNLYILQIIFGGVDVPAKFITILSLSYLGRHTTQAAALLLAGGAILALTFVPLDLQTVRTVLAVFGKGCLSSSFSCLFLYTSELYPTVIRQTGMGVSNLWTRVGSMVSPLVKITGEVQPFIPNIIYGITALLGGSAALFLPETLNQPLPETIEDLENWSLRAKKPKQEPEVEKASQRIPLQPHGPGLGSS
CYP3A5, sequence (P20815 whole entry): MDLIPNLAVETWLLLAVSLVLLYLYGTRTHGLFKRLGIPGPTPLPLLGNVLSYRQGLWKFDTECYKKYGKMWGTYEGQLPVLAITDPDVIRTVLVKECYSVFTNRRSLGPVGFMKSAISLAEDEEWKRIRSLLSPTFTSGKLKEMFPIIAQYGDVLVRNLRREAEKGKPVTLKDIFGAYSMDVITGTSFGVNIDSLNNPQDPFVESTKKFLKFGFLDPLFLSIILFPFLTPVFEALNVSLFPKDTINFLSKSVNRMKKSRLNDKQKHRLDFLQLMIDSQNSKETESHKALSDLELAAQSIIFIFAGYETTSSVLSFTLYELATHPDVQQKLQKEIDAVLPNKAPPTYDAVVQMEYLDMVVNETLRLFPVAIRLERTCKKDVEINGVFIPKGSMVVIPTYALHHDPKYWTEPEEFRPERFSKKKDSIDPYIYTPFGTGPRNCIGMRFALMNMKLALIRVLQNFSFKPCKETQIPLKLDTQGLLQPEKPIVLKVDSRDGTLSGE

Compound: COc1cc(O[C@H]2C(C)(C)[C@H](NC(=O)c3ccc(N4CCC(CN5CCN(c6ccc(C(=O)N[C@H]7CCC(=O)NC7=O)c(F)c6)CC5)CC4)cc3)C2(C)C)ccc1C#N [Compound A, 4-(4-((1-(4-(((1R,3R)-3-(4-cyano-3-methoxyphenoxy)-2,2,4,4-tetramethylcyclobutyl)carbamoyl)phenyl)piperidin-4-yl)methyl)piperazin-1-yl)-N—((S)-2,6-dioxopiperidin-3-yl)-2-fluorobenzamide]
- Fold accumulation, OATP1B3 (OATP1B3): < 2 fold
- Substrate for OATP1B3 (OATP1B3; 0.1, 0.5, 1 and 5 μM): not a substrate
- inhibition at 1 µM (Pgp; human, probe NMQ (1 μM), Vesicles, substrate NMQ (1 μM), read-out: Maximal % Inhibition): 87%
- IC50 (Pgp; vesicle assays): 0.23 µM
- IC50 (CYP2C8; read-out: IC50, 30 min Pre-incubation): > 15 µM
- IC50 (CYP2C8; read-out: IC50, No Pre-incubation): > 15 µM
- Loss of Compound A in CYP3A5 (CYP3A5): ≤ 23%
- % Parent at 0 Min, HLM at 60 min ([1]; human liver microsomes, 60 min): 92.6%
- Stability in HLM incubations ([1]; up to 60 min at 2 μM): relatively stable
- % Parent at 0 Min, HH at 240 min ([2]; human hepatocyte suspensions, 240 min): 86.9%
- Stability in human hepatocyte suspension ([2]; up to 240 min): relatively stable
- IC50 (OAT3): > 3.75 µM
- CYP2C8 mRNA Fold induction (CYP2C8 mRNA; Donor 1, 0.03-30 μM, 48 hours): <2 Fold
- CYP2C8 mRNA Fold induction (CYP2C8 mRNA; Donor 2, 0.03-30 μM, 48 hours): <2 Fold
- CYP2C8 mRNA induction, % PC (CYP2C8 mRNA; Donor 3, % of positive control response, at 0.1 μM): 28 % PC
- CYP2C8 mRNA Fold induction (CYP2C8 mRNA; Donor 3, maximal, at 0.1 μM): 3.1 Fold
- Permeability in Caco-2 cell monolayers (Caco-2 cell monolayers): low permeability
